In paper PMC4170816 (Journal of Chemical Information and Modeling, 2014):
Like-named read-outs stand apart in the source and are kept apart here.

Key:
CB2-WT = CB2-WT (Homo sapiens, UniProt P34972); experiment: [3H]CP55940 binding to CB2-WT in buffer supplemented with NaCl; conditions: NaCl up to 1000 mM; CB2-WT transiently expressed on CHO cell membrane
δ-opioid receptor = conditions: cited from earlier work
wild-type CB2 (WT) = wild-type CB2 (WT) (Homo sapiens, UniProt P34972); experiment: Competition binding assay, displacement of [3H]-CP-55940, membranes of CHO cells
A2AAR = conditions: sodium 150 mM; cited from earlier work
CB1 = conditions: read-out: Ki to the CB1 receptor; cited from earlier work

Sequence of wild-type CB2 (WT) (P34972 whole entry): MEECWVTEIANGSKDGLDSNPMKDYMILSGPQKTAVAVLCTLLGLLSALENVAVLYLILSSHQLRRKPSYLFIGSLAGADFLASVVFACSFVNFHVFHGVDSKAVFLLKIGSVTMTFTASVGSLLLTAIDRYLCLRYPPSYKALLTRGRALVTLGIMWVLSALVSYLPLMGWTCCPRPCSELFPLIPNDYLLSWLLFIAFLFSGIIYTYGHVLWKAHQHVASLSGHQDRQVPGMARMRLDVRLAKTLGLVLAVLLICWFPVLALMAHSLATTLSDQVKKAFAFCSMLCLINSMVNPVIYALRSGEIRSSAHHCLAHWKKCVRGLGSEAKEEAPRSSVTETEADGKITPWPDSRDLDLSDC
Sequence of CB2-WT (P34972 whole entry): as above

[Cl-].[Na+] [Na^+, NaCl]
effect on the binding of the CB2 agonist [3H]CP55940 (CB2-WT): did not have any effect

[D-Ala^2, D-Leu^5]-Enkephalin [[^3H]DADLE]
Ki (δ-opioid receptor; read-out: Ki value with 0 mM NaCl, 0 mM NaCl): 0.28 µM
Ki (δ-opioid receptor; read-out: Ki value with 140 mM NaCl, 140 mM NaCl): 2.8 µM

N=C(N)NC(=O)c1nc(Cl)c(N)nc1N [amiloride]
Ki (wild-type CB2 (WT); Ki value at CB2, competition binding, no added NaCl): 495 µM
Ki (wild-type CB2 (WT); Ki value at CB2 with 150 mM NaCl, with 150 mM NaCl): 310 µM

CCNC(=O)[C@H]1O[C@@H](n2cnc3c(N)ncnc32)[C@H](O)[C@@H]1O [[^3H]NECA, 5′-N-ethylcarboxamidoadenosine]
binding detected in presence of sodium (A2AAR): 25%

Cc1ccc(Cn2nc(C(=O)N[C@@H]3C(C)(C)[C@@H]4CC[C@@]3(C)C4)cc2-c2ccc(Cl)c(C)c2)cc1 [SR144528, 5-(4-chloro-3-methylphenyl)-1-[(4-methylphenyl)methyl]-N-[(1S,2S,4R)-1,3,3-trimethylbicyclo[2.2.1]hept-2-yl]-1H-pyrazole-3-carboxamide]
Ki (CB1): 0.4 µM
